According to US12630516B2, “Compounds” (NRG Therapeutics Ltd., priority 2020, dated 2026):
Values after ≈ are worked out from the molar mass of the structure shown. Each block holds one compound with its values, some of them ahead of it.

Assays:
mPTP = mPTP activity (Ca2+ retention, Fluo5N FLIPR) assay in isolated rat liver mitochondria; type: biochemical; conditions: average value from multiple experiments (n ≥ 2)
Text: Pharmacological inhibition or modulation of the mPTP can be measured in well characterised ‘Ca^2+ retention’ assays performed in isolated mitochondria. In vitro, isolated mitochondria rapidly sequester exogenous Ca^2+ until the intramitochondrial Ca^2+ concentration reaches the threshold for mPTP activation. Once the pore is activated, mitochondrial integrity is compromised and the stored Ca^2+ is released. The distribution of Ca^2+ between extra- and intra-mitochondrial compartments can be measured in real time with the use of membrane-impermeant Ca^2+ sensitive fluorescent dyes. Depending on the configuration of the assay, inhibition or modulation of the mPTP either delays the opening of the pore or increases the concentration of Ca^2+ required to induce mPTP opening.
MPTP activity was measured in mitochondria freshly isolated from female Sprague Dawley (250 to 300 gram) rat livers using the following method. Cervical dislocation was performed on the rat. The liver was then perfused in-situ with ˜40 ml cold Dulbecco's Phosphate Buffered Saline (DPBS) prior to dissection and transferred into 30 ml Isolation Buffer (250 mM Sucrose, 10 mM KCl, 1 mM EGTA, 1 mM EDTA, 25 mM HEPES, adjusted to pH 7.5 with 1M NaOH). Each lobe of the liver was then removed from the buffer, minced using tweezers and a scalpel into ˜5 mm pieces then transferred into a 50 ml Potterton dounce homogenization tube on ice containing 30 ml ice-cold centrifugation buffer (300 mM Trehalose, 25 mM HEPES, 1 mM EGTA, 1 mM EDTA, 10 mM KCl, adjusted to pH 7.5 with 1M NaOH and supplemented with 0.1% bovine serum albumin (BSA) and complete protease inhibitor cocktail (one tablet of inhibitor per 50 mls of buffer). Homogenisation was carried out using a teflon pestle at 1800 rpm. The slurry was centrifuged at 800 g for 10 min at 4° C., then the supernatant centrifuged at 10,000 g for 10 min. The pellet was washed once with FLIPR assay buffer (75 mM Mannitol, 25 mM Sucrose, 5 mM Potassium Phosphate Monobasic, 20 mM Tr is base, 100 mM KCl, 0.1% BSA adjusted to pH 7.4 with 5M HCl) centrifuged again, then resuspended in FLIPR assay buffer to a concentration of 8.8 mg/ml protein.
Tested compounds (10 mM stock in DMSO) were serially diluted in DMSO in half log steps to generate 10 test concentrations (final concentrations in assay 30 μM to 1 nM). An intermediate dilution of 5 μl DMSO samples into 247 μl FLIPR assay buffer was carried out prior to transfer of 5 μl into duplicate wells of a 384 well polypropylene assay plate. Control wells were 0.5% (v/v) DMSO and 5 μM cyclosporin A.
A stock mitochondria/Fluo5N assay solution was prepared in 5.6 ml FLIPR assay buffer (at RT) supplemented with succinate disodium salt (10 mM), rotenone (1 μM), Fluo5N pentapotassium salt (2 μM) and 1 ml mitochondria suspension, then transferred (15 μl) into the assay plate containing test compounds and incubated for 10 min at RT. Assay plates were then transferred to a FLIPR Tetra plate reader (Molecular Devices). Dye fluorescence was then measured every 3 sec for a total of 10 min. After 12 sec, a 2.5 μl bolus of CaCl2 (75 μM) was added from a source plate containing 675 μM CaCl2 in FLIPR assay buffer. IC50 values for tested compounds were calculated using the fluorescence value collected at the 10 min timepoint with % inhibition calculated using the DMSO control and cyclosporin A values as […] respectively.

[1] = Hepatocyte clearance assay, primary rat hepatocytes; type: in vitro ADME; conditions: average value from two experiments
Protocol: (§1) In vitro clearance studies were performed in primary rat and human hepatocytes (BioIVT). Vials of cryopreserved rat or human hepatocytes were thawed in a 37° C. water bath for 2 min. Cells were transferred into thawing medium (Williams' Medium E containing 30% Percoll, 1×GlutaMAX-1, 15 mM HEPES, 5% fetal bovine serum (FBS), 4 μg/ml insulin, 1 μM dexamethasone), centrifuged at 100 g for 10 min then resuspended in culture medium (Leibovitz's L-15 Medium) at a concentration of 0.5×10^6 viable cells/mL (number of viable cells assessed using AO/PI staining). Hepatocytes (198 μL) were transferred into wells of a 96-well non-coated plate and placed in a 37° C. incubator for 10 min. Test compound solutions were prepared from 10 mM stocks in DMSO, diluted to 100 μM in 50% (v/v in water) acetonitrile. Test compound samples (2 μl) were added to each well of hepatocytes and incubated at 37° C. […] Peak areas were determined from extracted ion chromatograms. The slope value, k, was determined by linear regression of the natural logarithm of the remaining percentage of the parent drug vs. incubation time curve. The in vitro half-life (in vitro t½) was determined from the slope value: in vitro t½=0.693/k. […]

[2] = Hepatocyte clearance assay, primary human hepatocytes; type: in vitro ADME; conditions: average value from two experiments
Protocol: as §1

[3] = PBS and FaSSIF solubility; type: physicochemical; conditions: for solubility at 2 h: FaSSIF, kinetic from dmso stock, Fasted state simulated intestinal fluid, 2 hr at 25° C.
Protocol: Test compounds were prepared as 10 mM stocks in DMSO and 15 μl samples transferred in duplicate into 1.5 mL glass flat bottom vials (BioTech Solutions). Fasted state simulated intestinal fluid (FaSSIF) or PBS (pH 7.4) was added to each vial to final volume of 500 μl. One PTFE encapsulated stir stick (V&P Scientific) was placed in each vial before sealing with PTFE/SIL plugs (BioTech Solutions). Vials were shaken at 1100 rpm for 2 hr at 25° C. Samples were then filtered through MultiScreen Solvinert filter plates (Millipore) via vacuum filtration. Aliquots of filtrate (5 μl) plus 5 μl DMSO were diluted in 490 μl 50% acetonitrile in water containing internal standard. The filtrate was analysed and quantified against a standard of known concentration using LC-MS/MS. Solubility values of the test compound and control compound were calculated as follows: [Sample]=(Area ratiossample*INJ VOL STD*DFSample*[STD])/(Area ratio STD*INJ VOLSample).

SMILES: Cc1n[nH]c2cc(/C=C/C(=O)N[C@@H]3CCCC[C@H]3C)ccc12 (racemic) [Example 43, Racemic-(E)-3-(3-methyl-1H-indazol-6-yl)-N-((1R,2R)-2-methylcyclohexyl)acrylamide]
mPTP Rat liver pIC50 (mPTP): 6.3

SMILES: Cc1c(F)cccc1NC(=O)/C=C/c1ccc2cn[nH]c2c1 [Comparative Example 1, (E)-N-(2-methyl-3-fluorophenyl)-3-(1H-indazol-6-yl)acrylamide, reference compound]
Rat heps Clint uL/min/10^6 cells [1]: 89 uL/min/10^6 cells | Human heps Clint uL/min/10^6 cells [2]: 13 uL/min/10^6 cells | Solubility PBS uM (pH 7.4) ([3]; PBS pH 7.4, 2 hr at 25° C.): 0.9 uM

SMILES: Cc1c(F)cccc1NC(=O)/C=C/c1ccc2oc(=O)[nH]c2c1 [Example 6, (E)-N-(3-fluoro-2-methylphenyl)-3-(2-oxo-2,3-dihydrobenzo[d]oxazol-5-yl)acrylamide]
solubility at 2 h [3]: 18 µM (≈ 5.62 µg/mL)

SMILES: O=C(/C=C/c1cc2[nH]nnc2cc1F)NC1CCc2ccccc21 (stereo not drawn) [Example 27, (E)-N-(2,3-dihydro-1H-inden-1-yl)-3-(5-fluoro-1H-benzo[d][1,2,3]triazol-6-yl) acrylamide]
mPTP Rat liver pIC50 (mPTP): 6.6

SMILES: O=C(/C=C/c1ccc2c(C(F)(F)F)n[nH]c2c1)NC1CCc2ccccc21 (stereo not drawn) [Example 28, (E)-N-(2,3-dihydro-1H-inden-1-yl)-3-(3-(trifluoromethyl)-1H-indazol-6-yl) acrylamide]
mPTP Rat liver pIC50 (mPTP): 6.7

Other lines, results leading:

hepatocyte CLint at 1 µM ([1]; primary rat hepatocytes (cryopreserved), read-out: Rat heps Clint uL/min/10^6 cells): 37.9 µL/min/1e6 cells | hepatocyte CLint at 1 µM ([2]; primary human hepatocytes (cryopreserved), read-out: Human heps Clint uL/min/10^6 cells): 9.4 µL/min/1e6 cells | solubility at 2 h [3]: 9.2 µM (≈ 3.2 µg/mL) | mPTP Rat liver pIC50 (mPTP): 7.7
SMILES: Cc1n[nH]c2cc(/C=C/C(=O)N[C@H]3c4ccccc4OC[C@@H]3C)ccc12 (single isomer, unassigned) [Example 65c]

mPTP Rat liver pIC50 (mPTP): 8.2
SMILES: CO[C@H]1Cc2ccccc2[C@@H]1NC(=O)/C=C/c1ccc2c(Cl)n[nH]c2c1 [Example 72, (E)-3-(3-chloro-1H-indazol-6-yl)-N-((1S,2S)-2-methoxy-2,3-dihydro-1H-inden-1-yl)acrylamide]
